From the NIST ThermoML archive (doi:10.1016/j.jct.2010.08.010)

Conditions: Liquid, Buoyancy - hydrostatic balance with magnetic suspension - one sinker

C1CCCCC1 [cyclohexane]
Conditions | mass density [kg/m3]
293.15 K, 99.46 kPa | 778.632
293.15 K, 1102 kPa | 779.471
293.15 K, 2002.4 kPa | 780.22
293.15 K, 4003.9 kPa | 781.856
293.15 K, 6003.8 kPa | 783.454
293.15 K, 8003.3 kPa | 785.025
293.15 K, 10042 kPa | 786.595
293.15 K, 12046 kPa | 788.105
293.15 K, 13919 kPa | 789.495
293.15 K, 15982 kPa | 790.995
293.15 K, 17946 kPa | 792.401
293.15 K, 20017 kPa | 793.855
313.15 K, 102.48 kPa | 759.667
313.15 K, 1139 kPa | 760.675
313.15 K, 2012.2 kPa | 761.509
313.15 K, 4102.4 kPa | 763.47
313.15 K, 5932.8 kPa | 765.157
313.15 K, 7910.5 kPa | 766.936
313.15 K, 10018 kPa | 768.784
313.15 K, 12069 kPa | 770.545
313.15 K, 13965 kPa | 772.137
313.15 K, 15902 kPa | 773.737
313.15 K, 17956 kPa | 775.394
313.15 K, 20142 kPa | 777.123
333.15 K, 1112.4 kPa | 741.367
333.15 K, 2043.6 kPa | 742.401
333.15 K, 3988 kPa | 744.517
333.15 K, 5966.8 kPa | 746.613
333.15 K, 8141.8 kPa | 748.853
333.15 K, 10007 kPa | 750.72
333.15 K, 11994 kPa | 752.664
333.15 K, 14093 kPa | 754.666
333.15 K, 15963 kPa | 756.414
333.15 K, 17995 kPa | 758.261
333.15 K, 19861 kPa | 759.929
353.15 K, 1109.9 kPa | 721.547
353.15 K, 1973.2 kPa | 722.669
353.15 K, 4000 kPa | 725.242
353.15 K, 6001.3 kPa | 727.698
353.15 K, 8046.5 kPa | 730.125
353.15 K, 10046 kPa | 732.423
353.15 K, 11820 kPa | 734.413
353.15 K, 13860 kPa | 736.633
353.15 K, 15940 kPa | 738.835
353.15 K, 18023 kPa | 740.978
353.15 K, 20003 kPa | 742.965
373.15 K, 1115.5 kPa | 701.065
373.15 K, 1950.1 kPa | 702.346
373.15 K, 4154.1 kPa | 705.638
373.15 K, 6126 kPa | 708.455
373.15 K, 8029.4 kPa | 711.079
373.15 K, 9951.2 kPa | 713.63
373.15 K, 12097 kPa | 716.383
373.15 K, 13877 kPa | 718.592
373.15 K, 16148 kPa | 721.319
373.15 K, 18078 kPa | 723.568
373.15 K, 19877 kPa | 725.607
393.15 K, 1162.9 kPa | 679.792
393.15 K, 1960.3 kPa | 681.265
393.15 K, 3901.4 kPa | 684.723
393.15 K, 5983.9 kPa | 688.253
393.15 K, 7986.4 kPa | 691.487
393.15 K, 9903.3 kPa | 694.452
393.15 K, 11975 kPa | 697.527
393.15 K, 13821 kPa | 700.163
393.15 K, 16029 kPa | 703.195
393.15 K, 18027 kPa | 705.845
393.15 K, 20004 kPa | 708.371
413.15 K, 1196.7 kPa | 657.32
413.15 K, 2172.6 kPa | 659.527
413.15 K, 4146.4 kPa | 663.767
413.15 K, 6122.3 kPa | 667.756
413.15 K, 8132.6 kPa | 671.583
413.15 K, 10013 kPa | 674.989
413.15 K, 11993 kPa | 678.397
413.15 K, 14004 kPa | 681.703
413.15 K, 16053 kPa | 684.936
413.15 K, 18098 kPa | 688.022
413.15 K, 19935 kPa | 690.694
433.15 K, 1086.7 kPa | 632.817
433.15 K, 2070.6 kPa | 635.63
433.15 K, 4050.3 kPa | 640.931
433.15 K, 6077 kPa | 645.937
433.15 K, 8181.7 kPa | 650.742
433.15 K, 10077 kPa | 654.811
433.15 K, 12111 kPa | 658.913
433.15 K, 13890 kPa | 662.325
433.15 K, 15959 kPa | 666.096
433.15 K, 18073 kPa | 669.76
433.15 K, 20010 kPa | 672.969
453.15 K, 2100.8 kPa | 609.942
453.15 K, 4117.3 kPa | 616.844
453.15 K, 6121.3 kPa | 623.004
453.15 K, 8117.4 kPa | 628.596
453.15 K, 9915.4 kPa | 633.254
453.15 K, 11931 kPa | 638.115
453.15 K, 13935 kPa | 642.628
453.15 K, 15959 kPa | 646.918
453.15 K, 18103 kPa | 651.206
453.15 K, 19890 kPa | 654.601
473.15 K, 2403.5 kPa | 582.448
473.15 K, 3924.9 kPa | 589.431
473.15 K, 6045.2 kPa | 597.933
473.15 K, 8093.2 kPa | 605.148
473.15 K, 9884.3 kPa | 610.832
473.15 K, 11911 kPa | 616.733
473.15 K, 13943 kPa | 622.171
473.15 K, 16018 kPa | 627.319
473.15 K, 18133 kPa | 632.216
473.15 K, 20025 kPa | 636.335
